Test results taken from patent US9586907B2, “Isothiocyanate compounds, pharmaceutical compositions, and uses thereof” (priority 2006, dated 2017).
In brackets after ≈: the same amount, converted by molar mass. Like-named read-outs stand apart in the source and are kept apart here.

Key:
M. tuberculosis W = test: MIC, M. tuberculosis W; type: cell-based
Procedure: (§1) Next, several of the bifunctional ITC compounds were tested for their ability to inhibit the growth of some clinical isolates of Mycobacteria, the results of which are summarized in Table 3 below.

M. tuberculosis CDC1551 = test: MIC, M. tuberculosis CDC1551; type: cell-based
Procedure: as §1

M. tuberculosis AB = test: MIC, M. tuberculosis AB; type: cell-based
Procedure: as §1

[1] = test system: MRSA (Staphylococcus aureus) BK12060; test: MIC, MRSA BK12060
M. bovis BCG = test: microbe, parasite or virus in culture; type: cell-based
[2] = test system: Pseudomonas aeruginosa BK12348; test: MIC, Pseudomonas aeruginosa BK12348
[3] = test system: Klebsiella pneumonii BK12261; test: MIC, Klebsiella pneumonii BK12261
M. cansassi = test: MIC, M. cansassi; type: cell-based; conditions: M. cansassi
[4] = test system: Klebsiella pneumonii BK12260; test: MIC, Klebsiella pneumonii BK12260
[5] = test system: Staphylococcus epidermidis BK12798; test: MIC, Staphylococcus epidermidis BK12798
[6] = test system: Staphylococcus epidermidis BK12799; test: MIC, Staphylococcus epidermidis BK12799
M. tuberculosis H37Rv = test: MIC, M. tuberculosis H37Rv; type: cell-based
Procedure: as §1

[7] = test system: Streptococcus sp., BK12235; test: MIC, Streptococcus sp., BK12235
[8] = test system: clinical isolates of bacteria and fungus (including yeasts); test: General antimicrobial activity, semi-quantitative score on collection of clinical isolates; type: cell-based; conditions: for General antimicrobial activity: semi-quantitative score from number of sensitive bacterial strains at 100 and 200 μM, deduced from number of sensitive bacterial species and average MIC; for General antimicrobial activity: key: −: indicating no activity; +++++: indicating highest activity
Procedure: The growth inhibitory effect of a number of various ITC compounds were tested on large collection of clinical isolates of bacteria and fungus (including yeasts), in order to establish a systematic structure-activity relationship for the ITC compounds. […] To assess the average activity for an individual ITC compound, the semi-quantitative score was calculated for each compound based on the number of sensitive bacterial strains at concentrations of 100 and 200 μM.

[9] = test system: Acinetobacter sp., BK12787; test: MIC, Acinetobacter sp., BK12787
Escherichia coli BK12336 = test: MIC, Escherichia coli BK12336
[10] = test system: Serattia marcescens BK12426; test: MIC, Serattia marcescens BK12426
M. tuberculosis 210 = test: MIC, M. tuberculosis 210; type: cell-based
Procedure: as §1

[11] = test system: Streptococcus sp., BK12233; test: MIC, Streptococcus sp., BK12233
M. tuberculosis W4 = test: MIC, M. tuberculosis W4; type: cell-based
Procedure: as §1

[12] = test system: Enterobacter cloacii BK12315; test: MIC, Enterobacter cloacii BK12315
[13] = test system: Pseudomonas aeruginosa BK12347; test: MIC, Pseudomonas aeruginosa BK12347
[14] = test system: Enterococcus sp., BK11940; test: MIC, Enterococcus sp., BK11940
[15] = test system: MRSA (Staphylococcus aureus) BK12064; test: MIC, MRSA BK12064
M. avium = test: MIC, M. avium; type: cell-based; conditions: M. avium
[16] = test system: Bacillus subtilis BK11590; test: MIC, Bacillus subtilis BK11590; type: cell-based; conditions: Gram +, 24 hours of incubation
Shigella sp., BK 12441 = test: MIC, Shigella sp., BK 12441; type: cell-based; conditions: Gram −, 24 hours of incubation
[17] = test system: Serattia marcescens BK12421; test: MIC, Serattia marcescens BK12421
[18] = test system: Acinetobacter sp., BK12786; test: MIC, Acinetobacter sp., BK12786
Bacillus cereus 4342 = test: MIC, Bacillus cereus 4342
M. fortuitum = test: MIC, M. fortuitum; type: cell-based; conditions: M. fortuitum
[19] = test system: Enterococcus sp., BK11936; test: MIC, Enterococcus sp., BK11936
Shigella sp., BK 12440 = test: MIC, Shigella sp., BK 12440; type: cell-based; conditions: Gram −, 24 hours of incubation
M. tuberculosis P = test: MIC, M. tuberculosis P; type: cell-based
Procedure: as §1

Escherichia coli K12 = test: MIC, Escherichia coli K12
M. scrofulaceum = test: MIC, M. scrofulaceum; type: cell-based; conditions: M. scrofulaceum
M. intracellularie = test: MIC, M. intracellularie; type: cell-based; conditions: M. intracellularie
[20] = MRSA BK12060, Gram +, 24 hours of incubation
[21] = Pseudomonas aeruginosa BK12348, Gram −, 24 hours of incubation
[22] = Klebsiella pneumonii BK12261, Gram −, 24 hours of incubation
[23] = Klebsiella pneumonii BK12260, Gram −, 24 hours of incubation
[24] = Staphylococcus epidermidis BK12798, Gram +, 24 hours of incubation
[25] = Staphylococcus epidermidis BK12799, Gram +, 24 hours of incubation
[26] = Streptococcus sp., BK12235, Gram +, grown on Tryptic Soy agar medium, 24 hours
[27] = Acinetobacter sp., BK12787, Gram −, 24 hours of incubation
[28] = Escherichia coli BK12336, Gram −, 24 hours of incubation
[29] = Serattia marcescens BK12426, Gram −, 24 hours of incubation
[30] = Streptococcus sp., BK12233, Gram +, grown on Tryptic Soy agar medium, 24 hours
[31] = Enterobacter cloacii BK12315, Gram −, 24 hours of incubation
[32] = Pseudomonas aeruginosa BK12347, Gram −, 24 hours of incubation
[33] = Enterococcus sp., BK11940, Gram +, 24 hours of incubation
[34] = MRSA BK12064, Gram +, 24 hours of incubation
[35] = Serattia marcescens BK12421, Gram −, 24 hours of incubation
[36] = Acinetobacter sp., BK12786, Gram −, 24 hours of incubation
[37] = Bacillus cereus 4342, Gram +, 24 hours of incubation
[38] = Enterococcus sp., BK11936, Gram +, 24 hours of incubation
[39] = Escherichia coli K12, Gram −, 24 hours of incubation
[40] = Mycobacterium tuberculosis, read-out: MIC
[41] = Staphylococcus aureus, MRSA, 24 h

S=C=NCCCCCCCCN=C=S [Compound 42, S═C═N—(CH2)8—N═C═S]
MIC (M. tuberculosis W): 4 µg/mL (≈ 17.5 µM)
MIC (M. tuberculosis CDC1551): 8 µg/mL (≈ 35 µM)
MIC (M. tuberculosis AB): 4 µg/mL (≈ 17.5 µM)
MIC [1, 20]: 2 to 4 µg/mL
MIC (M. bovis BCG): 4 µg/mL (≈ 17.5 µM)
MIC [2, 21]: >64 µg/mL
MIC [3, 22]: >64 µg/mL
MIC (M. cansassi): 4 µg/mL (≈ 17.5 µM)
MIC [4, 23]: >64 µg/mL
MIC [5, 24]: 2 µg/mL (≈ 8.76 µM)
MIC [6, 25]: 2 µg/mL (≈ 8.76 µM)
MIC (M. tuberculosis H37Rv): 4 µg/mL (≈ 17.5 µM)
MIC [7, 26]: 2 µg/mL (≈ 8.76 µM)
General antimicrobial activity [8]: +++++
MIC [9, 27]: >64 µg/mL
MIC (Escherichia coli BK12336; [28]): >64 µg/mL
MIC [10, 29]: 64 µg/mL (≈ 280 µM)
MIC (M. tuberculosis 210): 4 µg/mL (≈ 17.5 µM)
MIC [11, 30]: 1 to 2 µg/mL
MIC (M. tuberculosis W4): 4 µg/mL (≈ 17.5 µM)
MIC [12, 31]: 64 µg/mL (≈ 280 µM)
MIC [13, 32]: >64 µg/mL
MIC [14, 33]: 8 µg/mL (≈ 35 µM)
MIC [15, 34]: 4 µg/mL (≈ 17.5 µM)
MIC (M. avium): 32 µg/mL (≈ 140 µM)
MIC [16]: 2 µg/mL (≈ 8.76 µM)
MIC (Shigella sp., BK 12441): >64 µg/mL
MIC [17, 35]: 64 µg/mL (≈ 280 µM)
MIC [18, 36]: >64 µg/mL
MIC (Bacillus cereus 4342; [37]): 2 µg/mL (≈ 8.76 µM)
MIC (M. fortuitum): 32 µg/mL (≈ 140 µM)
MIC [19, 38]: 8 µg/mL (≈ 35 µM)
MIC (Shigella sp., BK 12440): >64 µg/mL
MIC (M. tuberculosis P): 4 µg/mL (≈ 17.5 µM)
MIC (Escherichia coli K12; [39]): >64 µg/mL
MIC (M. scrofulaceum): 32 µg/mL (≈ 140 µM)
MIC (M. intracellularie): 32 µg/mL (≈ 140 µM)

S=C=NCCCCCCCN=C=S [Compound 41, S═C═N—(CH2)7—N═C═S]
MIC (M. tuberculosis W): 2 µg/mL (≈ 9.33 µM)
MIC (M. tuberculosis CDC1551): 2 µg/mL (≈ 9.33 µM)
MIC (M. tuberculosis AB): 2 µg/mL (≈ 9.33 µM)
MIC [1, 20]: 4 µg/mL (≈ 18.7 µM)
MIC (M. bovis BCG): 2 µg/mL (≈ 9.33 µM)
MIC [2, 21]: 64 µg/mL (≈ 299 µM)
MIC [3, 22]: >64 µg/mL
MIC (M. cansassi): 8 µg/mL (≈ 37.3 µM)
MIC [4, 23]: >64 µg/mL
MIC [5, 24]: 4 µg/mL (≈ 18.7 µM)
MIC [6, 25]: 1 µg/mL (≈ 4.67 µM)
MIC (M. tuberculosis H37Rv): 2 µg/mL (≈ 9.33 µM)
MIC [7, 26]: 1 to 2 µg/mL
General antimicrobial activity [8]: +++++
MIC [9, 27]: 32 µg/mL (≈ 149 µM)
MIC (Escherichia coli BK12336; [28]): >64 µg/mL
MIC [10, 29]: >64 µg/mL
MIC (M. tuberculosis 210): 4 µg/mL (≈ 18.7 µM)
MIC [11, 30]: 1 to 2 µg/mL
MIC (M. tuberculosis W4): 2 µg/mL (≈ 9.33 µM)
MIC [12, 31]: >64 µg/mL
MIC [13, 32]: 64 µg/mL (≈ 299 µM)
MIC [14, 33]: 8 µg/mL (≈ 37.3 µM)
MIC [15, 34]: 4 µg/mL (≈ 18.7 µM)
MIC (M. avium): 32 µg/mL (≈ 149 µM)
MIC [16]: 2 µg/mL (≈ 9.33 µM)
MIC (Shigella sp., BK 12441): 64 µg/mL (≈ 299 µM)
MIC [17, 35]: >64 µg/mL
MIC [18, 36]: 32 µg/mL (≈ 149 µM)
MIC (Bacillus cereus 4342; [37]): 2 µg/mL (≈ 9.33 µM)
MIC (M. fortuitum): 32 µg/mL (≈ 149 µM)
MIC [19, 38]: 8 µg/mL (≈ 37.3 µM)
MIC (Shigella sp., BK 12440): 64 µg/mL (≈ 299 µM)
MIC (M. tuberculosis P): 4 µg/mL (≈ 18.7 µM)
MIC (Escherichia coli K12; [39]): >64 µg/mL
MIC (M. scrofulaceum): 32 µg/mL (≈ 149 µM)
MIC (M. intracellularie): 32 µg/mL (≈ 149 µM)

S=C=NCc1ccc(CN=C=S)cc1 [Compound 37]
MIC (M. tuberculosis W; [40]): 1 µg/mL (≈ 4.54 µM)
MIC (M. tuberculosis CDC1551; [40]): 4 µg/mL (≈ 18.2 µM)
MIC (M. tuberculosis AB; [40]): 2 µg/mL (≈ 9.08 µM)
MIC [1, 41]: 8 µg/mL (≈ 36.3 µM)
MIC (M. bovis BCG; Mycobacterium tuberculosis variant bovis BCG, BCG): 2 µg/mL (≈ 9.08 µM)
MIC ([2]; Pseudomonas aeruginosa, BK12348, 24 h): > 64 µg/mL
MIC ([3]; Klebsiella, BK12261, 24 h): > 64 µg/mL
MIC (M. cansassi; read-out: MIC): 4 µg/mL (≈ 18.2 µM)
MIC ([4]; Klebsiella, BK12260, 24 h): > 64 µg/mL
MIC ([5]; Staphylococcus epidermidis, BK12798, 24 h): 0.5 µg/mL (≈ 2.27 µM)
MIC ([6]; Staphylococcus epidermidis, BK12799, 24 h): 0.5 µg/mL (≈ 2.27 µM)
MIC (M. tuberculosis H37Rv; [40]): 2 µg/mL (≈ 9.08 µM)
MIC ([7]; Streptococcus, 24 h): < 0.5 µg/mL
MIC ([8]; read-out: MIC values towards the microorganisms): 1 to 4 µg/mL (≈ 4.54 to 18.2 µM)
General antimicrobial activity [8]: +++++
MIC ([9]; Acinetobacter, 24 h): > 64 µg/mL
MIC (Escherichia coli BK12336; Escherichia coli, BK12336, 24 h): 8 to 16 µg/mL (≈ 36.3 to 72.6 µM)
MIC ([10]; 24 h): 64 µg/mL (≈ 290 µM)
MIC (M. tuberculosis 210; [40]): 2 µg/mL (≈ 9.08 µM)
MIC ([11]; Streptococcus, 24 h): < 0.5 µg/mL
MIC (M. tuberculosis W4; [40]): 2 µg/mL (≈ 9.08 µM)
MIC ([12]; Enterobacter, BK12315, 24 h): > 64 µg/mL
MIC ([13]; Pseudomonas aeruginosa, BK12347, 24 h): > 64 µg/mL
MIC ([14]; Enterococcus, 24 h): 16 µg/mL (≈ 72.6 µM)
MIC [15, 41]: 4 µg/mL (≈ 18.2 µM)
MIC (M. avium; Mycobacterium avium, read-out: MIC): 32 µg/mL (≈ 145 µM)
MIC ([16]; read-out: MIC): 4 µg/mL (≈ 18.2 µM)
MIC (Shigella sp., BK 12441; read-out: MIC): 16 µg/mL (≈ 72.6 µM)
MIC ([17]; 24 h): 64 µg/mL (≈ 290 µM)
MIC ([18]; Acinetobacter, 24 h): > 64 µg/mL
MIC (Bacillus cereus 4342; Bacillus cereus, 4342, 24 h): 2 µg/mL (≈ 9.08 µM)
MIC (M. fortuitum; Mycolicibacterium fortuitum, read-out: MIC): 32 µg/mL (≈ 145 µM)
MIC ([19]; Enterococcus, 24 h): 16 µg/mL (≈ 72.6 µM)
MIC (Shigella sp., BK 12440; read-out: MIC): 16 µg/mL (≈ 72.6 µM)
MIC (M. tuberculosis P; [40]): 2 µg/mL (≈ 9.08 µM)
MIC (Escherichia coli K12; Escherichia coli, K12, 24 h): 16 µg/mL (≈ 72.6 µM)
MIC (M. scrofulaceum; Mycobacterium scrofulaceum, read-out: MIC): 16 µg/mL (≈ 72.6 µM)
MIC (M. intracellularie; read-out: MIC): 32 µg/mL (≈ 145 µM)
